Here are results for eleven compounds from patent publication US8557836B2 (priority 2008, dated 2013).

The target of one assay is full length Udorn AM2 protein (Influenza A virus, UniProt P0DOF5). Kind of assay: cell-based. It is filed as cell-based, influenza virus A/Udorn/72. The conditions noted are these: 100 μM.
Sequence of full length Udorn AM2 protein (P0DOF5 whole entry, looked up): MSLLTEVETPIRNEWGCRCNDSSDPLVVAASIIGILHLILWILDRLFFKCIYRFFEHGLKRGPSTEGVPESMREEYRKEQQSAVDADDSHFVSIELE
For the compound `c1ncc(CN2CCC3(CCCCC3)CC2)[nH]1` [Compound 7, 3-((1H-imidazol-4-yl)methyl)-3-azaspiro[5.5]undecane], the “inhibition of AM2 (in words)” value is on record as “moderate inhibition”.
Same read-out and setting: in the case of `c1c[nH]c(CN2CCC3(CCCCC3)CC2)n1` [Compound 8, 3-((1H-imidazol-2-yl)methyl)-3-azaspiro[5.5]undecane] it was “moderate inhibition”.

The assay is the same for the next values; noted with them: pH 5.5, read-out: AM2 Remaining Activity After 100 μM inhibition.
The term remaining activity denotes the share of the control activity or signal that is left under treatment. As for `C1CCC2(CC1)CCN(C1=NCCN1)CC2` [BL-1743, 3-(4,5-dihydro-1H-imidazol-2-yl)-3-azaspiro[5,5]undecane hydroiodide, reference compound], the remaining activity at 100 µM came to 25%.
With `C1CCC2(CC1)CCN(CC1CC1)CC2` [Compound 1, 3-(cyclopropylmethyl)-3-azaspiro[5,5]undecane], the remaining activity at 100 µM was found to be 100%.
Turning to `C1CCC2(CC1)CCN(CC1CCCC1)CC2` [Compound 2, 3-(cyclopentylmethyl)-3-azaspiro[5,5]undecane], the remaining activity at 100 µM is 100%.
Still for that read-out and setting: in the case of `c1cc(CN2CCC3(CCCCC3)CC2)cs1` [Compound 3, 3-(thiophen-3-ylmethyl)-3-azaspiro[5,5]undecane] it was 90%.
On to `Cn1cc(CN2CCC3(CCCCC3)CC2)cn1` [Compound 4, 3-((1-methyl-1H-pyrazol-4-yl)methyl)-3-azaspiro[5,5]undecane], for which the remaining activity at 100 µM is 100%.
Regarding `Cc1cc(CN2CCC3(CCCCC3)CC2)no1` [Compound 5, 3-(3-azaspiro[5,5]undecan-3-ylmethyl)-5-methylisoxazole], the remaining activity at 100 µM turned out to be 100%.
Same read-out and setting: under `c1ccc(CN2CCC3(CCCCC3)CC2)nc1` [Compound 6, 3-(pyridin-2-ylmethyl)-3-azaspiro[5,5]undecane] stands 100%.
For the compound `c1ncc(CN2CCC3(CCCCC3)CC2)[nH]1` [Compound 7, 3-((1H-imidazol-4-yl)methyl)-3-azaspiro[5.5]undecane], the remaining activity at 100 µM is 70%.
With `c1c[nH]c(CN2CCC3(CCCCC3)CC2)n1` [Compound 8, 3-((1H-imidazol-2-yl)methyl)-3-azaspiro[5.5]undecane], the remaining activity at 100 µM came out at 49%.
The same measure, in the same setting: under `CC1(C)CCNCC1` [Compound 19, 4,4-dimethylpiperidinium chloride] stands 75%.
On the same count and under the same terms, under `CCC1(C)CCNCC1` [Compound 20, 4-ethyl-4-methylpiperidinium chloride] stands 87%.
